The source of these data is publication PMC9861386, “N-Heterocyclic Carbene-Iridium Complexes as Photosensitizers for In Vitro Photodynamic Therapy to Trigger Non-Apoptotic Cell Death in Cancer Cells” (Molecules, 2023).

One data set relates to NIH-3T3 fibroblasts. Briefly: MTT cell viability, 72 h, dark or 458 nm irradiation. The data set is classed as cell-based, murine. The note with it: for GI50: 72 h, MTT; for PI NIH-3T3: GI50 non-irradiated / GI50 irradiated. Here is the method:
(§1) For all biology experiments, the compounds were solubilized in DMSO to reach a final fixed concentration equal to 0.1% v/v to avoid cytotoxicity caused by DMSO [89]. The results are normalized to controls (0.1% v/v DMSO). Depending on the cell type, approximatively 1000 to 10,000 cells/cm^2 were seeded in 48-well plates for MTT, ATP and GSH assays and 60 mm Petri dishes for Western blots. Cells were allowed to attach overnight and then incubated for 4 h with the different complexes (in the dark), then irradiated for 10 min, followed by an incubation in the dark up to 72 h.
(§2) Irradiation was conducted using an in-house device: a series of blue light LEDs selected according to the absorption spectra of the compounds at a 458 nm wavelength with an emitted power of 9.6 watts. The absorbed energy, or irradiance, was measured at 458 nm with a Thorlabs Optical Power Meter PM100A at 5 and 10 cm distance between the cell layer and the light source and expressed as mW/cm^2.
(§3) A tetrazolium-based MTT reagent (3-(4,5-dimethylthiazol-2-yl)-2,5-diphenyltetrazolium bromide) was used to determine cell viability, as previously described. After 72 h of treatment at 37 °C and 5% CO2, cells were incubated with 25 μL MTT solution (5 mg/mL; Sigma-Aldrich) for 4 h. After solubilization with 500 μL of lysis buffer (DMSO), formazan was quantified by spectrophotometry with a microplate reader at 570 nm absorbance (ClarioSTAR, BMG LabTech, Champigny-sur-Marne, France). GI50 values corresponding to the concentration that caused 50% inhibition of cell proliferation were calculated from dose–response curves obtained by nonlinear regression analysis. All results were calculated from data obtained in at least three independent experiments.

A further data set has as its system MC3T3 osteoblasts. The description is as above. The data set is classed as cell-based, murine. As to the method: as §1, §2, §3
The test system of another data set is PC-3. The data set is described as follows: MTT cytotoxicity, 48 h. The data set is classed as cell-based, human. The settings on record: for GI50: MTT; for SI (PC-3): NIH3T3 vs PC-3. Here is the method: (§4) The in vitro cytotoxicity of iridium(III) complexes 4a–4g was first evaluated against cancer cell lines PC-3 (human prostate) and T24 (human bladder) and the non-cancerous NIH-3T3 cell line (murine fibroblasts) using colorimetric MTT tests after 48 h of treatment. The dimeric iridium precursor [IrCl(ppy)2]2 was used as reference and the results are summarized in Table S1 (Supplementary Materials) in the supporting information file. […] The complexes were also evaluated for their cytotoxicity towards healthy NIH-3T3 cells, giving access to the selectivity index (SI). […] No linear correlation between lipophilicity and anti-cancer activity was found for the iridium(III) complexes 4a–4g. For the following biological studies, we focused on the C1 series.
(§5) Table S1. Cytotoxic activity of iridium(III) NHC complexes 4a−4g expressed as GI50 (μM) values towards selected cancer and normal cell lines as determined by MTT assay (48 h).a Complex PC-3 T24 NIH3T3 SI (PC-3) SI (T24) […]
(§6) a GI50 values correspond to the concentration of complexes causing 50 % inhibition of cell growth.
(§7) Data were obtained from three independent experiments.
(§8) The cytotoxic effects of the NHC precursors, the imidazolium salts, which represents the potential hydrolysis and/or degradation products of the complexes, have been published before [SI-1, SI-2]. […]

The test system of a further data set is T24. Briefly: MTT cytotoxicity, 48 h. The data set is classed as cell-based, human. The note with it: for GI50: MTT; for SI (T24): NIH3T3 vs T24. Here is the method: as §4, §5, §6, §7, §8
The nature of data set [1]: Photophysical measurements (emission, quantum yield, lifetime) in CH2Cl2. Format: physicochemical. The settings on record: for τ1 excited-state lifetime: CH2Cl2; for ΦPL emission quantum yield: CH2Cl2, 298 K, references POPOP and quinine sulfate. The source says: All complexes have been photophysically investigated at standard pressure in CH2Cl2 at 298 K. The absorption spectra of complexes 4a to 4g in CH2Cl2 at 298 K are shown in Figure 7. The strong absorption bands below 300 nm correspond to spin-allowed ^1π→π* electronic ligand-centered (LC) transitions. The structureless bands at 300–360 nm are attributed to ppy-to-ppy ^1π→π* […] charge transfer (LLCT) and Ir-to-ppy metal-to-ligand charge transfer (MLCT) transitions. The lowest-lying bands in the visible region can be assigned to both singlet and triplet MLCT transitions. No significant difference in the absorption spectra of complexes 4a to 4g can be found in the CH2Cl2 solution.
The luminescence spectra of complexes 4a to 4f in CH2Cl2 at 298 K are shown in Figure 8 and their photophysical data are summarized in Table 1.
The relative emission quantum yields (ΦPL) of these complexes in CH2Cl2 at room temperature were measured by using POPOP and quinine sulfate in 1 N H2SO4 as standard references (ΦPL = 97% and ΦPL = 54%, respectively). […] In addition, the excited-state lifetimes of complexes 4a to 4d are in the range of 166.4–190.7 ns, indicating the phosphorescence nature of the emissions.
UV/Vis absorption spectra were recorded at RT on solutions contained in quartz cuvettes (optical pathlength 1 cm, Hellma® (HELLMA, Müllheim, Germany)) with a PerkinElmer® (PerkinElmer, Waltham, MA, USA) UV/VIS/NIR spectrophotometer Lambda 950 and a PerkinElmer® detector UV/VIS/NIR Accessory 2D Detector Module.
Fluorescence and phosphorescence emission spectra were obtained with a HORIBA JOBIN YVON (Bensheim, Germany) fluromax-4 and spectrofluorometer.
Luminescence quantum yields were measured according to the method of Demas and Crosby, on solution samples at RT. The quantum yield is defined as: ΦS=ΦR*As/Ar* ηs/ηr^2^2 where ΦS is the quantum yield of the sample, ΦR is the known quantum yield of the reference standard at the area subtended by the emission band (on a wavelength scale) and η is the refractive index of the solvent used for the preparation of the solution. As (related to the sample) and Ar (related to the reference) must be excitation wavelength. Different standards were selected depending on the spectral region of the interest: POPOP in hexane (Φ = 97%) and QUININNE in water (Φ = 54%).
Fluorescence lifetime measurements were performed by an Edinburgh FLS920 spectrofluorometer equipped with a TCC900 card for data acquisition in time-correlated single-photon counting experiments (0.5 ns time resolution) with a D2 lamp and an LDH-P-C-405 pulsed diode laser. The estimated experimental error was 2 nm on the band maximum (5% on the lifetime, 10% on the fluorescence quantum yield).

The test system of a further data set is NIH3T3. The data set is described as follows: MTT cytotoxicity, 48 h. Format: cell-based, murine. As to the method: as §4, §5, §6, §7, §8
Data set [2] relates to panel of five cancer cell lines (T24, PC-3, MCF7, A549, HeLa). Briefly: MTT cell viability, 72 h, pooled over the cancer cell panel. The data set is classed as cell-based, human. The note with it: for Average SI vs MC3T3, Blue light: GI50 MC3T3 / GI50 of all irradiated cancer cell lines; for Average SI vs NIH, Blue light: GI50 NIH-3T3 / GI50 of all irradiated cancer cell lines. Here is the method: as §1, §2, §3

Setting [3] is: 458 nm irradiation 10 min, read-out: GI50 NIH-3T3 Blue.
Setting [4] is: dark, read-out: GI50 NIH-3T3 Dark.
Where [5] appears, read: 458 nm irradiation 10 min, read-out: GI50 MC3T3 Blue.
Setting [6] is: dark, read-out: GI50 MC3T3 Dark.

Like-named read-outs stand apart in the source and are kept apart here.

For `CC(C)[n+]1ccn2[c]1[Ir-3]13([c]4ccccc4-c4cccc[n+]41)([c]1ccccc1-c1cccc[n+]13)[c]1n(cc[n+]1C(C)C)C2.F[P-](F)(F)(F)(F)F` [Complex 4a], the GI50 was determined as 2.79 µM in the data set with NIH-3T3 fibroblasts (setting [3]); 3.67 µM in the data set with NIH-3T3 fibroblasts (setting [4]); 1.74 µM in the data set on MC3T3 osteoblasts (setting [5]); 2.46 µM in the data set on MC3T3 osteoblasts (setting [6]); 0.48 µM in the data set with PC-3; 0.31 µM with T24. For the same compound, in the data set on NIH3T3, it took 3.3 µM to inhibit growth by half (GI50). Further, the “PI NIH-3T3” value in the data set on NIH-3T3 fibroblasts stood at 1.3. Further, the “SI (PC-3)” value in the data set on PC-3 was determined as 6.9. The “SI (T24)” value in the data set with T24 was found to be 10.6. In data set [1], this compound returned a τ1 excited-state lifetime of 191 ns. Besides, the “ΦPL emission quantum yield” value in data set [1] turned out to be 1.2%.
As to `CC(C)C[n+]1ccn2[c]1[Ir-3]13([c]4ccccc4-c4cccc[n+]41)([c]1ccccc1-c1cccc[n+]13)[c]1n(cc[n+]1CC(C)C)C2.F[P-](F)(F)(F)(F)F` [Complex 4b], the 50% growth inhibitory concentration (GI50) in the data set on NIH-3T3 fibroblasts (setting [3]) came to 1.52 µM; with NIH-3T3 fibroblasts (setting [4]) it was 1.95 µM; in the data set with MC3T3 osteoblasts (setting [5]) it was 0.704 µM; with MC3T3 osteoblasts (setting [6]), 0.979 µM; with PC-3, 0.51 µM; in the data set on T24, 0.38 µM. Moreover, in the data set on NIH3T3, it took 3.5 µM to inhibit growth by half (GI50). In the data set with NIH-3T3 fibroblasts, the “PI NIH-3T3” value is on record as 1.3. The “Average SI vs MC3T3, Blue light” value in data set [2] was found to be 8.3. The “Average SI vs NIH, Blue light” value in data set [2] came to 18. Moreover, the “SI (PC-3)” value in the data set with PC-3 was 6.9. In addition, the “SI (T24)” value in the data set with T24 came out at 9.2. In data set [1], this compound gave a τ1 excited-state lifetime of 166 ns. Besides, the “ΦPL emission quantum yield” value in data set [1] was determined as 1.6%.
Regarding `F[P-](F)(F)(F)(F)F.c1ccc(C[n+]2ccn3[c]2[Ir-3]24([c]5ccccc5-c5cccc[n+]52)([c]2ccccc2-c2cccc[n+]24)[c]2n(cc[n+]2Cc2ccccc2)C3)cc1` [Complex 4c], the GI50 with NIH-3T3 fibroblasts (setting [3]) stood at 2.67 µM; with NIH-3T3 fibroblasts (setting [4]) it was 2.73 µM; with MC3T3 osteoblasts (setting [5]), 1.33 µM; with MC3T3 osteoblasts (setting [6]), 1.16 µM; in the data set with PC-3 it was 0.41 µM; in the data set on T24 it was 0.43 µM. For the same compound, it took 7.1 µM to inhibit growth in the data set with NIH3T3 by half (GI50). Also, the “PI NIH-3T3” value with NIH-3T3 fibroblasts is reported as 1.0. The “Average SI vs MC3T3, Blue light” value in data set [2] is 12.1. Further, in data set [2], the “Average SI vs NIH, Blue light” value is 24.3. Also, in the data set on PC-3, the “SI (PC-3)” value came to 17.3. Further, the “SI (T24)” value with T24 worked out at 16.5. For the same compound, the τ1 excited-state lifetime in data set [1] came to 180 ns. Besides, the “ΦPL emission quantum yield” value in data set [1] is 1.6%.
Regarding `CSc1ccc(-[n+]2ccn3[c]2[Ir-3]24([c]5ccccc5-c5cccc[n+]52)([c]2ccccc2-c2cccc[n+]24)[c]2n(cc[n+]2-c2ccc(SC)cc2)C3)cc1.F[P-](F)(F)(F)(F)F` [Complex 4d], the GI50 is 2.78 µM with NIH-3T3 fibroblasts (setting [3]); 2.33 µM in the data set on NIH-3T3 fibroblasts (setting [4]); 1.8 µM in the data set on MC3T3 osteoblasts (setting [5]); 2.08 µM with MC3T3 osteoblasts (setting [6]); 0.71 µM with PC-3; 0.95 µM with T24. In the data set on NIH3T3, this compound came in with a 50% growth inhibitory concentration (GI50) of 8.5 µM. The “PI NIH-3T3” value with NIH-3T3 fibroblasts is given as 0.8. The “Average SI vs MC3T3, Blue light” value in data set [2] is 8.6. Moreover, the “Average SI vs NIH, Blue light” value in data set [2] was found to be 13.2. In the data set on PC-3, the “SI (PC-3)” value turned out to be 12.0. Moreover, the “SI (T24)” value in the data set with T24 came out at 8.9. The compound also showed a τ1 excited-state lifetime in data set [1] of 167 ns. Moreover, the “ΦPL emission quantum yield” value in data set [1] was 1.1%.
